# Like-named read-outs stand apart in the source and are kept apart here.
# How the values were obtained:
# tumor CD8+ T cells = type: in vivo, C57 mice
# Summary of the method: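 Flow cytometric ratio of CD8⁺ to CD45⁺ cells in dissociated tumour. Cell suspensions were labelled with CD45-PE and CD8-FITC for 1 h at room temperature, then washed twice in phosphate buffer with 1% fetal bovine serum.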
# D121 lung tumor cells = type: in vivo, C57 mice; conditions: for Treatment effects on C57 mice, in words: compared to the control group and the other treatment groups; for Effect together with PDL1-antibody in promoting immunization and treatment, in words: combination with PDL1-antibody
# Summary of the method: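 Endpoint is tumor inhibition rate from tumor size (mm^3) after weekly drug treatment for 4 weeks, begun once s.c. tumors from 10^6 live D121 cells reached 0.3-0.4 cm. Before challenge, C57 mice received three i.p. doses of 5×10^5 irradiated D121 cells, two weeks apart, or saline.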
# [1] = test system: Human pancreatic cancer Panc-1 tumor tissue homogenate; type: biochemical; conditions: for Activation Efficiencies (%): Human pancreatic cancer Panc-1 tumor tissue homogenate (30 μg/ml), 1 mg/ml compound; for Activation ratio (%) in homogenates from different tumor tissues: Human pancreatic cancer Panc-1
# Method: (§1) At 37 °C, sample compounds were added into 100 μg acidized tumor tissue homogenates (pH6.0) in a concentration of 1 mg/ml.
# (§2) […], sample compounds were added into 100 μg acidized tumor tissue homogenates (pH6.0) in a concentration of 1 mg/ml.
# (§3) At 37 °C, sample compounds were added into 100 μg acidized tumor tissue homogenates in a concentration of 1 mg/ml.
# (§4) In the experiments, at 37 °C, compounds were added into proteases in 100 μg acidized tumor tissue homogenates in a concentration of 1 mg/ml. […] Meanwhile certain compounds produced in the screening were compared and their activation efficiency in same tissue was analyzed.
# (§5) At 37° C., compounds were added into proteases in 100 μg acidized tumor tissue homogenates in a concentration of 1 mg/ml.
# [2] = test system: Human colon cancer HT-29 tumor tissue homogenate; type: biochemical; conditions: for Activation ratio (%) in homogenates from different tumor tissues: Human colon cancer HT-29
# Method: as §1, §2, §3, §4, §5
# [3] = test system: Human prostate cancer PC-3 tumor tissue homogenate; type: biochemical; conditions: for Activation Efficiencies (%): Human prostate cancer PC-3 tumor tissue homogenate (30 μg/ml), 1 mg/ml compound; for Activation ratio (%) in homogenates from different tumor tissues: Human prostate cancer PC-3
# Method: as §1, §2, §3, §4, §5
# [4] = test system: Human ovarian cancer SK-OV-3 tumor tissue homogenate; type: biochemical; conditions: for Activation Efficiencies (%): Human ovarian cancer SK-OV-3 tumor tissue homogenate (30 μg/ml), 1 mg/ml compound; for Activation ratio (%) in homogenates from different tumor tissues: Human ovarian cancer SK-OV-3
# Method: as §1, §2, §3, §4, §5
# [5] = test system: Human chronic leukemia K562 tumor tissue homogenate; type: biochemical; conditions: for Activation Efficiencies (%): Human chronic leukemia K562 tumor tissue homogenate (30 μg/ml), 1 mg/ml compound; for Activation ratio (%) in homogenates from different tumor tissues: Human chronic leukemia K562
# Method: as §1, §2, §3, §4, §5
# [6] = test system: Human non-small cell lung cancer A549 tumor tissue homogenate; type: biochemical; conditions: for Activation Efficiencies (%): Human non-small cell lung cancer A549 tumor tissue homogenate (30 μg/ml), 1 mg/ml compound; for Activation ratio (%) in homogenates from different tumor tissues: Human non-small cell lung cancer A549
# Method: as §1, §2, §3, §4, §5
# [7] = test system: Human renal cancer OS-RC-2 tumor tissue homogenate; type: biochemical; conditions: for Activation Efficiencies (%): Human renal cancer OS-RC-2 tumor tissue homogenate (30 μg/ml), 1 mg/ml compound; for Activation ratio (%) in homogenates from different tumor tissues: Human renal cancer OS-RC-2
# Method: as §1, §2, §3, §4, §5
# [8] = test system: Human liver cancer Hepg2 tumor tissue homogenate; type: biochemical; conditions: for Activation Efficiencies (%): Human liver cancer Hepg2 tumor tissue homogenate (30 μg/ml), 1 mg/ml compound; for Activation ratio (%) in homogenates from different tumor tissues: Human liver cancer Hepg2
# Method: as §1, §2, §3, §4, §5
# [9] = test system: Human breast cancer MDA-MB435 tumor tissue homogenate; type: biochemical; conditions: for Activation Efficiencies (%): Human breast cancer MDA-MB435 tumor tissue homogenate (30 μg/ml), 1 mg/ml compound; for Activation ratio (%) in homogenates from different tumor tissues: Human breast cancer MDA-MB435
# Method: as §1
# (§6) At 37 °C, sample compounds were added into 100 μg acidized human breast cancer (MDA-MB435) tumor tissue homogenates (pH6.0) in a concentration of 1 mg/ml.
# as §2, §6, §3, §4, §5
# [10] = D121 immunized C57 mice, 13.2 μmol/kg, ratio of CD8 positive cells in CD45 positive cells of tumor
# [11] = D121 immunized C57 mice, 13.2 μmol/kg weekly, PDL1 antibody 5 μg/kg where combined, Day 18
# [12] = D121 immunized C57 mice, drugs weekly for 4 weeks, Day 18 (Example 23)
# [13] = 100 μg acidized homogenate pH6.0, 1 mg/ml, 37°
# [14] = Table 27, immunized C57 mice, D121 lung tumor, drugs weekly for 4 weeks, Day 18
# [15] = 1 mg/ml, acidized homogenate pH6.0, Paclitaxel release by HPLC
# [16] = ratio of CD8 positive cells in CD45 positive cells of tumor, flow cytometry, drugs 13.2 μmol/kg, PDL1 antibody 5 μg/kg
# [17] = Day 18, immunized C57 mice, drugs 13.2 μmol/kg, PDL1 antibody 5 μg/kg, weekly for 4 weeks
compound,measurement,setting,value
4-N—(N—(N—(N-(6-maleimido caproyl)-L-alanyl)-L-alanyl)-L-asparaginyl)-amino benzyl alcohol-MMAE-carbamate [Compound S6],CD8: D45 (%),tumor CD8+ T cells; [10],13.0%
same,Inhibitory rate on tumor Day 18,D121 lung tumor cells; [11],29.47
same,Size of tumor (mm^3) Day 18,D121 lung tumor cells; [11],957.46 ± 257.87 mm^3
same,"Treatment effects on C57 mice, in words",D121 lung tumor cells,improved treatment effect as compared to the daunorubicin group
same,Activation Efficiencies (%),[1],17.3%
same,Activation Efficiencies (%),"[2]; Human colon cancer HT-29 tumor tissue homogenate (30 μg/ml), 1 mg/ml compound",22.4%
same,Activation Efficiencies (%),[3],13.2%
same,Activation Efficiencies (%),[4],23.5%
same,Activation Efficiencies (%),[5],28.4%
same,Activation Efficiencies (%),[6],27.4%
same,Activation Efficiencies (%),[7],20.4%
same,Activation Efficiencies (%),[8],26.7%
same,Activation Efficiencies (%),[9],25.6%
"COCCOCC(=O)N[C@H](C)C(=O)N[C@H](C)C(=O)N[C@H](CC(N)=O)C(=O)Nc1ccc(COC(=O)OC(C(=O)OC2C[C@@]3(O)C(OC(=O)c4ccccc4)[C@@H]4C5(OC(C)=O)COC5C[C@H](O)[C@@]4(C)C(=O)[C@H](OC(C)=O)C(=C2C)C3(C)C)[C@@H](NC(=O)c2ccccc2)c2ccccc2)cc1 (stereo in doubt) [S1′, 2-(2-methoxyethoxy) acetylamino-L-Ala-L-Ala-L-Asn-p-amino-benzyl-paclitaxel]",CD8: CD45 (%),"tumor CD8+ T cells; D121 immunized C57 mice (Example 23), CD8 positive cells in CD45 positive cells of tumor",19.6%
same,Size of tumor (mm^3) Day 18,D121 lung tumor cells; [12],237.60 ± 156.42 mm^3
same,inhibitory rate on tumor % Day 18,D121 lung tumor cells; [12],84.9%
same,"Effect together with PDL1-antibody in promoting immunization and treatment, in words",D121 lung tumor cells,excellent synergistic effect
same,"Treatment effects on C57 mice, in words",D121 lung tumor cells,greatly improved
same,Activation ratio (%) in homogenates from different tumor tissues,[1]; [13],94.8%
same,Activation ratio (%) in homogenates from different tumor tissues,[2]; [13],79.4%
same,Activation ratio (%) in homogenates from different tumor tissues,[3]; [13],97.3%
same,Activation ratio (%) in homogenates from different tumor tissues,[4]; [13],88.4%
same,Activation ratio (%) in homogenates from different tumor tissues,[5]; [13],64.7%
same,Activation ratio (%) in homogenates from different tumor tissues,[6]; [13],86.4%
same,Activation ratio (%) in homogenates from different tumor tissues,[7]; [13],86.4%
same,Activation ratio (%) in homogenates from different tumor tissues,[8]; [13],95.3%
same,Activation ratio (%) in homogenates from different tumor tissues,[9]; [13],92.3%
same,activation efficiency (%),"[9]; human breast cancer (MDA-MB435) tumor tissue homogenates pH6.0, 100 μg, 1 mg/ml, control compounds vs S1′-S4′",94.3%
COCCOCC(=O)NCCCC[C@H](NC(=O)COCCOC)C(=O)N[C@H](C)C(=O)N[C@H](C)C(=O)N[C@H](CC(N)=O)C(=O)Nc1ccc(COC(=O)OC(C(=O)OC2C[C@@]3(O)[C@@H](OC(=O)c4ccccc4)[C@H]4[C@](C)(C(=O)[C@H](OC(C)=O)C(=C2C)C3(C)C)[C@@H](O)CC2OC[C@]24OC(C)=O)[C@@H](NC(=O)c2ccccc2)c2ccccc2)cc1 (stereo partly drawn) [Compound A1],CD8: CD45 (%),"tumor CD8+ T cells; Table 27, CD8 positive cells in CD45 positive cells of tumor, flow cytometry, immunized C57 mice, D121",20.4%
same,Size of tumor (mm^3) Day 18,D121 lung tumor cells; [14],261.36 ± 178.3 mm^3
same,inhibitory rate on tumor % Day 18,D121 lung tumor cells; [14],84.52%
same,"Effect together with PDL1-antibody in promoting immunization and treatment, in words",D121 lung tumor cells,excellent synergistic effect
same,"Treatment effects on C57 mice, in words",D121 lung tumor cells,greatly improved
same,Activation ratio (%) in homogenates from different tumor tissues,[1]; [15],97.8%
same,Activation ratio (%) in homogenates from different tumor tissues,[2]; [15],82.4%
same,Activation ratio (%) in homogenates from different tumor tissues,[3]; [15],100.3%
same,Activation ratio (%) in homogenates from different tumor tissues,[4]; [15],91.4%
same,Activation ratio (%) in homogenates from different tumor tissues,[5]; [15],67.7%
same,Activation ratio (%) in homogenates from different tumor tissues,[6]; [15],89.5%
same,Activation ratio (%) in homogenates from different tumor tissues,[7]; [15],89.2%
same,Activation ratio (%) in homogenates from different tumor tissues,[8]; [15],98.3%
same,Activation ratio (%) in homogenates from different tumor tissues,[9]; [15],95.6%
same,activation efficiency (%),"[9]; Table 24, acidized human breast cancer (MDA-MB435) tumor tissue homogenates pH6.0, 1 mg/ml, Paclitaxel release by HPLC",95.1%
COCCOCCOCCOCCOCCOCC(=O)N[C@H](C)C(=O)N[C@H](C)C(=O)N[C@H](CC(N)=O)C(=O)Nc1ccc(COC(=O)N2[C@H]3[C@@H]2CN2C4=C(C(=O)C(N)=C(C)C4=O)[C@H](COC(N)=O)[C@]32OC)cc1 [Compound E2],CD8: CD45 (%),tumor CD8+ T cells; [16],19.7%
same,Size of tumor (mm^3) Day 18,D121 lung tumor cells; [17],331.57 ± 124.45 mm^3
same,inhibitory rate on tumor % Day 18,D121 lung tumor cells; [17],83.87%
same,"Treatment effects on C57 mice, in words",D121 lung tumor cells,greatly improved
same,Activation ratio (%) in homogenates from different tumor tissues,"[1]; 37° C., 1 mg/ml",84.6%
same,Activation ratio (%) in homogenates from different tumor tissues,"[2]; 37° C., 1 mg/ml",96.1%
same,Activation ratio (%) in homogenates from different tumor tissues,"[3]; 37° C., 1 mg/ml",86.4%
same,Activation ratio (%) in homogenates from different tumor tissues,"[4]; 37° C., 1 mg/ml",97.6%
same,Activation ratio (%) in homogenates from different tumor tissues,"[6]; 37° C., 1 mg/ml",96.4%
same,Activation ratio (%) in homogenates from different tumor tissues,"[7]; 37° C., 1 mg/ml",94.5%
same,Activation ratio (%) in homogenates from different tumor tissues,"[8]; 37° C., 1 mg/ml",94.8%
same,Activation ratio (%) in homogenates from different tumor tissues,"[9]; 37° C., 1 mg/ml",90.6%
"COc1cccc2c1C(=O)c1c(O)c3c(c(O)c1C2=O)C[C@@](O)(C(C)=O)C[C@@H]3O[C@H]1C[C@H](NC(=O)OCc2ccc(NC(=O)[C@H](CC(N)=O)NC(=O)[C@H](C)NC(=O)[C@H](C)NC(=O)CCCCCN3C(=O)C=CC3=O)cc2)[C@H](O)[C@H](C)O1 [Compound S5, 4-N—(N—(N—(N-(6-maleimidocaproyl)-L-alanyl)-L-alanyl)-L-asparaginyl)-amino benzyl alcohol-daunorubicin-carbamate]",CD8: CD45 (%),tumor CD8+ T cells; [10],17.4%
same,Size of tumor (mm^3) Day 18,D121 lung tumor cells; [11],379.75 ± 125.64 mm^3
same,"Treatment effects on C57 mice, in words",D121 lung tumor cells,greatly improved
same,Activation Efficiencies (%),[1],97.4%
same,Activation Efficiencies (%),[3],97.3%
same,Activation Efficiencies (%),[4],97.4%
same,Activation Efficiencies (%),[5],73.5%
same,Activation Efficiencies (%),[6],96.7%
same,Activation Efficiencies (%),[7],98.3%
same,Activation Efficiencies (%),[8],67.3%
same,Activation Efficiencies (%),[9],96.7%
"CO[C@@]12[C@H](COC(N)=O)C3=C(C(=O)C(C)=C(N)C3=O)N1C[C@@H]1N[C@@H]12 [mitomycin, reference compound]",CD8: CD45 (%),tumor CD8+ T cells; [16],6.7%
same,Size of tumor (mm^3) Day 18,D121 lung tumor cells; [17],1210.28 ± 368.45 mm^3
same,inhibitory rate on tumor % Day 18,D121 lung tumor cells; [17],28.62%
